The structures appear in SMILES notation.

The test addresses T1, RAGE tail (Homo sapiens, UniProt Q15109).
T1 construct: The cytoplasmic domain of RAGE, C terminal RAGE or ctRAGE (RAGE tail) is critical for RAGE-dependent signal transduction
T1 sequence (Q15109 364-404 limits assumed): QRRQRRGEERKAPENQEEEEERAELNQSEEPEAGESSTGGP
Kind of test: RAGE tail fluorescence titration (fluorescence quenching), Kd determination. To be noted: compound titrated into 100 nM solution of RAGE tail, NB = binding not detected. The method, then:
Binding affinities of small molecules for either CT-RAGE or FH1 are determined by performing fluorescence titrations to generate binding isotherms and standard SPR experiments. […]
Compound D-IIIa was titrated into 100 nM solution of RAGE tail. Fluorescence quenching was used to determine binding. R^2 quality factor of the fitting was 0.94 (FIG. 1).
Compound D-IIIb was titrated into 100 nM solution of RAGE tail. Fluorescence quenching was used to determine binding. R^2 quality factor of the fitting was 0.97 (FIG. 2).
Compound D-IIIc was titrated into 100 nM solution of RAGE tail. Fluorescence quenching was used to determine binding. R^2 quality factor of the fitting was 0.98 (FIG. 3).
Compound D-IIId was titrated into 100 nM solution of RAGE tail. Fluorescence quenching was used to determine binding. R^2 quality factor of the fitting was 0.99 (FIG. 4).
Compound D-IIIe was titrated into 100 nM solution of RAGE tail. Fluorescence quenching was used to determine binding. R^2 quality factor of the fitting was 0.98 (FIG. 5).
Compound D-IIIi was titrated into 100 nM solution of RAGE tail. Fluorescence quenching was used to determine binding. R^2 quality factor of the fitting was 0.90 (FIG. 6).
Compound D-IIIk was titrated into 100 nM solution of RAGE tail. Fluorescence quenching was used to determine binding. R^2 quality factor of the fitting was 0.89 (FIG. 7).
Compound D-IIIq was titrated into 100 nM solution of RAGE tail. Fluorescence quenching was used to determine binding. R^2 quality factor of the fitting was 0.82 (FIG. 8).
Compound D-IIIv was titrated into 100 nM solution of RAGE tail. Fluorescence quenching was used to determine binding. R^2 quality factor of the fitting was 0.93 (FIG. 9).
Compound D-IIIw was titrated into 100 nM solution of RAGE tail. Fluorescence quenching was used to determine binding. R^2 quality factor of the fitting was 0.94 (FIG. 10).
Compound D-IVa was titrated into 100 nM solution of RAGE tail. Fluorescence quenching was used to determine binding. R^2 quality factor of the fitting was 0.94 (FIG. 11).
Compound D-IVb was titrated into 100 nM solution of RAGE tail. Fluorescence quenching was used to determine binding. R^2 quality factor of the fitting was 0.93 (FIG. 12).
Compound D-IVc was titrated into 100 nM solution of RAGE tail. Fluorescence quenching was used to determine binding. R^2 quality factor of the fitting was 0.92 (FIG. 13).
Compound D-IVd was titrated into 100 nM solution of RAGE tail. Fluorescence quenching was used to determine binding. R^2 quality factor of the fitting was 0.94 (FIG. 14).
Compound D-IVe was titrated into 100 nM solution of RAGE tail. Fluorescence quenching was used to determine binding. R^2 quality factor of the fitting was 0.93 (FIG. 15).
Compound D-IVf was titrated into 100 nM solution of RAGE tail. Fluorescence quenching was used to determine binding. R^2 quality factor of the fitting was 0.95 (FIG. 16).
Compound D-IVg was titrated into 100 nM solution of RAGE tail. Fluorescence quenching was used to determine binding. R^2 quality factor of the fitting was 0.89 (FIG. 17).
Compound D-IVh was titrated into 100 nM solution of RAGE tail. Fluorescence quenching was used to determine binding. R^2 quality factor of the fitting was 0.93 (FIG. 18).

Usually Kd stands for the concentration at which binding is half-saturated. A low value points to tighter binding. Compound `CC(=O)NC(CN1CCCC(C(=O)O)C1)Cn1c(C)c(C)c2ccccc21` [Compound D-IVf] returned a Kd of 4.6 nM.

Consider `OC(CN1CCCCC1)Cn1c2c(c3ccccc31)CCCC2` [Compound D-IVa], for which the dissociation constant (Kd) was 72 nM.

The compound `CC(=O)NC(CN1CCCC(C(N)=O)C1)Cn1c(C)c(C)c2ccccc21` [Compound D-IVg] returned a Kd of 12 nM.

Compound `Cc1c(CC(O)CN2CCOCC2)c2ccc(F)cc2n1C` [Compound D-IIIv] came in with a Kd of 14 nM.

Compound `O=C(O)C1CCCN(CC(O)Cn2c3c(c4ccccc42)CCCC3)C1` [Compound D-IVc] had a Kd of 18 nM.

For `Cc1c(CC(O)CN2CCOCC2)c2ccccc2n1C` [Compound D-IIIe, 1-(1,2-dimethyl-1H-indol-3-yl)-3-morpholinopropan-2-ol], binding was put at a Kd of 20 nM. This Kd and that of the compound before are within 1.5-fold of each other.

`CC(=O)NC(CN1CCOCC1)Cn1c(C)c(C)c2ccccc21` [Compound D-IIIc, N-(1-(2,3-dimethyl-1H-indol-1-yl)-3-morphohnopropan-2-yl)acetamide] yielded a Kd of 9 nM.

Compound `Cc1c(C)n(CC(O)CN2CCOCC2)c2cc(F)ccc12` [Compound D-IIId] registered a Kd of 55 nM.

For the compound `Cc1c(C)n(CC(CC#N)CN2CCOCC2)c2ccccc12` [Compound D-IIIw], the Kd came to 4.3 nM.

Take `Cc1c(CC(O)CN2CCCC(C(=O)O)C2)c2ccccc2n1C` [Compound D-IVh]: the affinity, expressed as Kd, was 7.7 nM.

Turning to `Cc1c(C)n(CC(O)CN2CCOCC2)c2ccc(F)cc12` [Compound D-IIIa, 1-(5-fluoro-2,3-dimethyl-1H-indol-1-yl)-3-morpholinopropan-2-ol], the Kd amounted to 82 nM.

Turning to `NC(=O)C1CCCN(CC(O)Cn2c3c(c4ccccc42)CCCC3)C1` [Compound D-IVb], binding was characterised by a dissociation constant (Kd) of 11 nM.

On to `Cc1c(C)n(CC(CN2CCOCC2)NC(=O)C(C)C)c2ccccc12` [Compound D-IIIk], for which the Kd is 62 nM.

As to `Cc1c(C)n(CC(C#N)CN2CCCC(C(=O)O)C2)c2ccccc12` [Compound D-IVd], the Kd was found to be 12 nM.

As for `Cc1c(C)n(CC(C#N)CN2CCCC(C(N)=O)C2)c2ccccc12` [Compound D-IVe], the Kd came out at 2.6 nM.

In the case of `CC(=O)NC(CN1CCOCC1)Cn1c(C)c(C)c2cc(F)ccc21` [Compound D-IIIi], the Kd is 9 nM. Compared with the last compound, the Kd is about 3.5-fold higher.

In the case of `Cc1c(C)n(CC(C#N)CN2CCOCC2)c2ccccc12` [Compound D-IIIb], binding was characterised by a dissociation constant (Kd) of 4 nM.

Turning to `Cc1c(CC(O)CN2CCOCC2)c2ccccc2n1C(C)C` [Compound D-IIIq], the affinity, expressed as Kd, was 11 nM.
